“And” between values parts separate entries of the source, which are not always exact repeats. Identical values can stand only once.
Tests used:
HBV [1] = assay: Combination study with Roferon in HBV infected HepaRG cells: HBV DNA in supernatant by qPCR, CalcuSyn and isobologram analysis; type: cell-based, HBV (genotype D); settings: for Overall CI: average of CI at 50%, 75% and 90%; for EC50: Hepatitis B virus, HepaRG
Procedure: HepG2.2.15 cells were cultured in DMEM+Glutamax I medium (Gibco, #21885) supplemented with 10% FBS, 1% Pen/Strep (Gibco, #15140) and G-418 ([…]) and used for production of infectious HBV (genotype D). 90% confluent cells from three T175 flasks were trypsinized and transferred into one collagen coated hyperflask (550 mL). Once the cells were confluent, medium was changed to DMEM+Glutamax I medium with 1% DMSO and 2.5% FBS. Once the cells were slightly over confluent, medium was changed to DMEM/F12+Glutamax I medium (Gibco, #31331) supplemented with MEM non-essential aminoacids (6 mL, Gibco, #11140), P/S (6 mL), sodium pyruvate (6 mL), DMSO (9 mL) and FBS (10 mL) (all per 500 mL medium). Medium was changed every 3 days and supernatants were harvested for 2 weeks. Virus was concentrated from supernatants by PEG precipitation and the titer (genome equivalent (GE)/mL) was determined by qPCR. Briefly, supernatants were mixed with 40% PEG solution at a ratio of 4:1, incubated on a shaker at 4° C. overnight and then centrifuged using 50 mL falcon tubes at 4° C. for one hour at 3724 g (RCF). The supernatant was discarded and the centrifugation step was repeated with new supernatant reusing the tubes until all PEG-precipitated supernatant was processed. The pellets were re-suspended in William's E Medium (Gibco, #22551) at a concentration of 10^7-10^9 genome equivalents (GE) per ml and frozen at −80° C. DNA copy number calculation was based on a standard curve generated from HBV plasmid dilutions with known concentrations.
HepaRG cells (Biopredic International, Saint-Gregoire, France) were cultured in working growth medium (500 mL Willams E Medium with 50 mL HepaRG Growth supplement from Biopredic, 5 mL Glutamax-I (Gibco, #35050) and 5 mL Pen/Strep) for 2 weeks. After 2 weeks, medium was changed to differentiation medium containing 1.8% DMSO (500 mL Willams E Medium with 50 mL HepaRG Growth supplement from Biopredic, 5 mL Pen/Strep, 5 mL Glutamax-I and 9 mL DMSO). Medium was changed twice a week up to 2 weeks. Once fully differentiated, cells were trypsinized and seeded into collagenated 96-well plates (50,000 cells/well in 100 μL) or 24-well plates (300,000 cells/well in 500 μL) in differentiation medium. Cells were cultured at least 5 days in the plates before they were infected with HBV.
The combination experimental results were analyzed using the model described by Craig et al. (Craig J, Duncan I, Whittaker L and Roberts N. (1990). Antiviral synergy between inhibitors of HIV proteinase and reverse transcriptase. Antiviral Chem. Chemother. 4:161-166). EC50 values were obtained for compounds used alone and in combination with others. To relate these two values and describe the degree of synergy/additivity/antagonism between them, the Fractional Inhibitory Concentration (FIC) was first calculated and used to generate isobolograms. Briefly, the FIC is the ratio of the EC50 of the drug in combination to the EC50 of the drug on its own: FIC=ratio[EC50combination:EC50alone]
The Combination Index (CI), obtained by adding the FICs of the two compounds, was then used to describe the effect between compounds used in the combinations. A CI<1 means synergism, a CI=1 means additivity and a CI>1 means antagonism.
Each experiment was performed in at least triplicate and performed independently 3 times. Mean percent inhibition of HBV replication based on DNA copy number was calculated from all experiments and analyzed using the Calcusyn software (CalcuSyn Version 2.11, Biosoft, Cambridge, UK) based on the Loewe additivity model described by Chou and Talalay (Chou T C (2006). Theoretical basis, experimental design, and computerized simulation of synergism and antagonism in drug combination studies. Pharmacol. Rev., 58:621-681). For the CalcuSyn evaluation, data from three diagonal lanes with a constant concentration ratio for the drug combinations of each lane from the checkerboard plate were used (marked in bold in Table 2). […]

HBV [2] = settings: HBV infected transgenic mouse model or humanized mouse models; cited from earlier work
[3] = test system: HBV infected HepaRG cells; assay: CellTiter-Glo cell viability assay of HBV infected and treated HepaRG cells; type: cell-based; settings: individual compound at maximum concentration, day 11 post infection
Procedure: Cell viability of the HBV infected and treated HepaRG cells was determined at day 11 post infection using the CellTiter-Glo® Luminescent Cell Viability Assay (Promega, Cat. No. G7572). 100 μL of CTG reagent were added to each well of the cells, incubated for 10 min and 80 μL of each well were transferred to a new white 96 well plate. Luminescence (0.2 sec) was measured using an Envision reader (PerkinElmer).

[4] = CalcuSyn, HBV DNA, molar ratio 1:0.3
[5] = CalcuSyn, HBV DNA, molar ratio 1:1
[6] = CalcuSyn, HBV DNA, molar ratio 1:3
[7] = individual compound, HBV infected HepaRG cells, HBV DNA, mean of n independent experiments

## Nc1ccn([C@@H]2CS[C@H](CO)O2)c(=O)n1 [3TC and 3TC]
HBV [1]; [4]
  CI value at 50% HBV inhibition: 1.12 ± 0.24
  CI value at 75% HBV inhibition: 1.05 ± 0.16
  CI value at 90% HBV inhibition: 1.02 ± 0.11
HBV [1]; [5]
  CI value at 50% HBV inhibition: 0.98 ± 0.12
  CI value at 75% HBV inhibition: 1.00 ± 0.14
  CI value at 90% HBV inhibition: 1.06 ± 0.11
HBV [1]; [6]
  CI value at 50% HBV inhibition: 1.02 ± 0.22
  CI value at 75% HBV inhibition: 1.03 ± 0.22
  CI value at 90% HBV inhibition: 1.08 ± 0.21
HBV [1]; CalcuSyn, molar ratio 1:0.3
  Overall CI: 1.06 ± 0.16
HBV [1]; CalcuSyn, molar ratio 1:1
  Overall CI: 1.02 ± 0.11
HBV [1]; CalcuSyn, molar ratio 1:3
  Overall CI: 1.04 ± 0.19
HBV [1]; CalcuSyn, based on overall CI values
  Assessment of combination effect: additivity

## COC(=O)C1=C(C)NC(c2ncc(F)cc2F)=N[C@H]1c1ccc(F)cc1Cl [Bay 41-4109]
HBV [2]
  in vivo efficacy: demonstrated in vivo efficacy with HBV DNA reduction

## COC(=O)C1=C(CN2CCOC[C@H]2C(=O)O)N=C(c2nccs2)N[C@H]1c1ccc(F)cc1Cl [Compound 1, (S)-4-[(R)-6-(2-Chloro-4-fluoro-phenyl)-5-methoxycarbonyl-2-thiazol-2-yl-3,6-dihydro-pyrimidin-4-ylmethyl]-morpholine-3-carboxylic acid]
HBV [1]; [7]
  EC50: 21.2 nM
[3]
  % cell viability at max concentration ± SD (n): 96.8 ± 4.2 (3) %

## Nc1ccn([C@@H]2CS[C@H](CO)O2)c(=O)n1 [Compound 3TC, Lamivudine]
HBV [1]; [7]
  EC50: 12.9 nM
[3]
  % cell viability at max concentration ± SD (n): 86.4 ± 2.6 (3) % and 104.5 ± 2.6 (3) %

## CCOC(=O)C1=C(CN2CCN3C(=O)N(CC(C)(C)C(=O)O)C[C@@H]3C2)NC(c2nccs2)=N[C@H]1c1cccc(F)c1C [Compound 4, 3-[(8aS)-7-[[(4S)-5-ethoxycarbonyl-4-(3-fluoro-2-methyl-phenyl)-2-thiazol-2-yl-1,4-dihydropyrimidin-6-yl]methyl]-3-oxo-5,6,8,8a-tetrahydro-1H-imidazo[1,5-a]pyrazin-2-yl]-2,2-dimethyl-propanoic acid]
HBV [1]; [7]
  EC50: 8.7 nM
[3]
  % cell viability at max concentration ± SD (n): 96.1 ± 14.5 (3) %

## interferon alfa-2a [Roferon]
HBV [1]; [7]
  EC50 ± SD (n): 0.9 IU/mL ± 0.5 (3) and 1.8 IU/ml ± 1.7 (3) IU/mL

From patent publication US10596173B2, “Combination therapy of an HBV capsid assembly inhibitor and an interferon” (Hoffmann-La Roche Inc., priority 2015, dated 2020)
